How the values were obtained:
[1] = target: T1, Peroxisome proliferator-activated receptor delta (Homo sapiens) (UniProt Q03181); assay: Agonist activity at Gal4-fused human PPAR-delta ligand binding domain expressed in CHO-K1 cells assessed as receptor transactivation incubated for 24 to 48 hrs by luciferase reporter gene assay relative to control; assay type: cell-based; conditions: time lower 24.0 hrs, time upper […]
T1 sequence (whole entry): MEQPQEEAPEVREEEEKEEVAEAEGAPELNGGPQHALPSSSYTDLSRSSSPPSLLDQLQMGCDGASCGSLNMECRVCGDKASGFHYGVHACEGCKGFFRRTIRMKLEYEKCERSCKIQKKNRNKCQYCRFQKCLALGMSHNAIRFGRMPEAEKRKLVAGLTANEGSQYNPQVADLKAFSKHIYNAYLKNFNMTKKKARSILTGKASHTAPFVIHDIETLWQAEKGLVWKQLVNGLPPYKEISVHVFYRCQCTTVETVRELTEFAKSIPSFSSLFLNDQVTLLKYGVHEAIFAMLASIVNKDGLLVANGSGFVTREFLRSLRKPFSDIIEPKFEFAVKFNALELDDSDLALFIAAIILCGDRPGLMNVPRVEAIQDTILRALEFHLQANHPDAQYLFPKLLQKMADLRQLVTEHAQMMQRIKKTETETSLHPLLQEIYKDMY

[2] = target: T2, Peroxisome proliferator-activated receptor alpha (Homo sapiens) (UniProt Q07869); assay: Agonist activity at Gal4-fused human PPAR-alpha ligand binding domain expressed in CHO-K1 cells assessed as receptor transactivation incubated for 24 to 48 hrs by luciferase reporter gene assay relative to control; assay type: cell-based; conditions: time lower 24.0 hrs, time upper […]
T2 sequence (whole entry): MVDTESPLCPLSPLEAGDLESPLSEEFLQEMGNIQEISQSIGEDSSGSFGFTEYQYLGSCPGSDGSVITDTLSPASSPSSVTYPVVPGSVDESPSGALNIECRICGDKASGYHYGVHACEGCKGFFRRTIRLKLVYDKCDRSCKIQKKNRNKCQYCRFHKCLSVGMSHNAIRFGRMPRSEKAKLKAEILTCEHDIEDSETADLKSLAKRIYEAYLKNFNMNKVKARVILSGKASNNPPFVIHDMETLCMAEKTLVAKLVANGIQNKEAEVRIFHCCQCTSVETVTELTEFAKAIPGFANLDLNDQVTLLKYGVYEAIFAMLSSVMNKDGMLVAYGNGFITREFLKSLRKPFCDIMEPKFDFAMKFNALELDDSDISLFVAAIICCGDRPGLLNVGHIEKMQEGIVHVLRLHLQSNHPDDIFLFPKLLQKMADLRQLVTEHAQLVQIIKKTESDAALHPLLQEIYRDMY

Homo sapiens = organism: Homo sapiens; assay: Selectivity ratio of EC50 for agonist activity at Gal4-fused human PPAR-alpha ligand binding domain expressed in CHO-K1 cells to EC50 for agonist activity at Gal4-fused human PPAR-delta ligand binding domain expressed in CHO-K1 cells; assay type: cell-based
[3] = target: T3, Peroxisome proliferator-activated receptor delta (Mus musculus) (UniProt P35396); assay: Agonist activity at Gal4-fused mouse PPAR-delta ligand binding domain expressed in CHO-K1 cells assessed as receptor transactivation incubated for 24 to 48 hrs by luciferase reporter gene assay relative to control; assay type: cell-based; conditions: time lower 24.0 hrs, time upper […]
T3 sequence (whole entry): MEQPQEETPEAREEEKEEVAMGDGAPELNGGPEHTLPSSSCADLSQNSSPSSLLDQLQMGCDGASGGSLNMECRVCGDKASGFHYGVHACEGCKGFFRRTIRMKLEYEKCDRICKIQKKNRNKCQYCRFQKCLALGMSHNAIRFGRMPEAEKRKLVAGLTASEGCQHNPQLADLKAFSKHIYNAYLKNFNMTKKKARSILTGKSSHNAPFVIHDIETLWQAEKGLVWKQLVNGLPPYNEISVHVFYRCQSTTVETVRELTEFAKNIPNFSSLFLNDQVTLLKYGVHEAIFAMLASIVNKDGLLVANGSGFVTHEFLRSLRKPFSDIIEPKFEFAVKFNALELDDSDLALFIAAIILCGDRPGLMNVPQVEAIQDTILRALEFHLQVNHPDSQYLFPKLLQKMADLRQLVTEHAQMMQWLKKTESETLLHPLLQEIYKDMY

[4] = target: T4, Peroxisome proliferator-activated receptor alpha (Mus musculus, UniProt P23204); assay: Agonist activity at Gal4-fused mouse PPAR-alpha ligand binding domain expressed in CHO-K1 cells assessed as receptor transactivation incubated for 24 to 48 hrs by luciferase reporter gene assay; assay type: cell-based
T4 sequence (P23204 whole entry): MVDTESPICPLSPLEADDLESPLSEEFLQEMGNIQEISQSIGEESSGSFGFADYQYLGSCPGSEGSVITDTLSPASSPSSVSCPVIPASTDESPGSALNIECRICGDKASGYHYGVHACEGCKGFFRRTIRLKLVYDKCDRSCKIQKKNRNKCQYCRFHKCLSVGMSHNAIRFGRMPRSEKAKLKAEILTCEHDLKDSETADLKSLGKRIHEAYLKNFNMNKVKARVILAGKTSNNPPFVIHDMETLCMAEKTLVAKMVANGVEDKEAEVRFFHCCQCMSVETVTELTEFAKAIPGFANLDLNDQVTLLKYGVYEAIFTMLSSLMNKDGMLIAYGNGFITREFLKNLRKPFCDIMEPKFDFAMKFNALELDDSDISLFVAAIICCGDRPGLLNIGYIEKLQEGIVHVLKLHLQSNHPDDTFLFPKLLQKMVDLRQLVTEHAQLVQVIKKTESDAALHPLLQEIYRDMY

[5] = target: T5, Peroxisome proliferator-activated receptor alpha (Mus musculus) (UniProt P23204); assay: Agonist activity at Gal4-fused mouse PPAR-alpha ligand binding domain expressed in CHO-K1 cells assessed as receptor transactivation incubated for 24 to 48 hrs by luciferase reporter gene assay relative to control; assay type: cell-based; conditions: time lower 24.0 hrs, time upper […]
T5 sequence (whole entry): T4 sequence (P23204 whole entry)

Mus musculus [6] = organism: Mus musculus; assay: Selectivity ratio of EC50 for agonist activity at Gal4-fused mouse PPAR-alpha ligand binding domain expressed in CHO-K1 cells to EC50 for agonist activity at Gal4-fused mouse PPAR-delta ligand binding domain expressed in CHO-K1 cells; assay type: cell-based
Mus musculus [7] = organism: Mus musculus; assay: Selectivity ratio of EC50 for agonist activity at Gal4-fused mouse PPAR-gamma ligand binding domain expressed in CHO-K1 cells to EC50 for agonist activity at Gal4-fused mouse PPAR-delta ligand binding domain expressed in CHO-K1 cells; assay type: cell-based
[8] = target: T6, Peroxisome proliferator-activated receptor delta (Mus musculus, UniProt P35396); assay: Agonist activity at Gal4-fused mouse PPAR-delta ligand binding domain expressed in CHO-K1 cells assessed as receptor transactivation incubated for 24 to 48 hrs by luciferase reporter gene assay; assay type: cell-based
T6 sequence (P35396 whole entry): T3 sequence (whole entry)

[9] = target: T7, Peroxisome proliferator-activated receptor gamma (Mus musculus, UniProt P37238); assay: Agonist activity at Gal4-fused mouse PPAR-gamma ligand binding domain expressed in CHO-K1 cells assessed as receptor transactivation incubated for 24 to 48 hrs by luciferase reporter gene assay; assay type: cell-based
T7 sequence (P37238 whole entry): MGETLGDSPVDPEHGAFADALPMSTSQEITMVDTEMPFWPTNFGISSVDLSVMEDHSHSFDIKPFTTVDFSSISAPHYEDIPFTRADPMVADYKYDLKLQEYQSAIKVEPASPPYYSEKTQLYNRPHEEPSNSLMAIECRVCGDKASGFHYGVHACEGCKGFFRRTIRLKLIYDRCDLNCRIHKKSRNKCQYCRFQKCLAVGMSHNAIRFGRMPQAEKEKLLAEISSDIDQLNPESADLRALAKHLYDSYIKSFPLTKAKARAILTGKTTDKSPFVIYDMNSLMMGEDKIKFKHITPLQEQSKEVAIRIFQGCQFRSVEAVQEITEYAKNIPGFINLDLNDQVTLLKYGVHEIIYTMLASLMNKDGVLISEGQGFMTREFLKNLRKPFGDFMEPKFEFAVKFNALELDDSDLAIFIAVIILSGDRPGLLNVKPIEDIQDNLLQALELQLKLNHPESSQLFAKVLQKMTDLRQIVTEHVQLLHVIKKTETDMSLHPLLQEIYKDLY

[10] = AUC in rat at 0.5 mg/kg, iv; assay type: ADME, organism-based; design: dose 0.5 mg/kg, route iv; conditions: in vivo
[11] = Clearance in rat at 0.5 mg/kg, iv; assay type: ADME, organism-based; conditions: in vivo
[12] = Half life in rat at 0.5 mg/kg, iv; assay type: ADME, organism-based; conditions: in vivo
[13] = AUC in rat at 1 mg/kg, po; assay type: ADME, organism-based; design: dose 1 mg/kg, route po; conditions: in vivo
[14] = Cmax in rat at 1 mg/kg, po; assay type: ADME, organism-based; design: dose 1 mg/kg, route po; conditions: in vivo
[15] = Oral bioavailability in rat at 1 mg/kg; assay type: ADME, organism-based; conditions: in vivo
Mus musculus [16] = assay: Antihypercholesterolemic activity against hApoB100/hCETP-dTg hypercholesterolemic mouse model assessed as serum HDL-C level at 3 mg/kg, po administered once daily for 8 days; assay type: functional; conditions: time 8 day
Mus musculus [17] = assay: Antihypercholesterolemic activity against hApoB100/hCETP-dTg hypercholesterolemic mouse model assessed as serum total cholesterol level at 3 mg/kg, po administered once daily for 8 days; assay type: functional; conditions: time 8 day
Mus musculus [18] = assay: Antihypercholesterolemic activity against hApoB100/hCETP-dTg hypercholesterolemic mouse model assessed as serum non-HDL-C level at 3 mg/kg, po administered once daily for 8 days; assay type: functional; conditions: time 8 day
[19] = target: T8, Peroxisome proliferator-activated receptor delta (Homo sapiens, UniProt Q03181); assay: Agonist activity at Gal4-fused human PPAR-delta ligand binding domain expressed in CHO-K1 cells assessed as receptor transactivation incubated for 24 to 48 hrs by luciferase reporter gene assay; assay type: cell-based
T8 sequence (Q03181 whole entry): T1 sequence (whole entry)

Structure (SMILES) | Emax [1] | Emax [2] | Ratio EC50 (Homo sapiens) | Emax [3] | EC50 [4] | Emax [5] | Ratio EC50 (Mus musculus [6]) | Ratio EC50 (Mus musculus [7]) | EC50 [8] | EC50 [9] | AUC [10] | clearance [11] | half-life [12] | AUC [13] | Cmax [14] | bioavailability [15] | Activity (Mus musculus [16]) | Activity (Mus musculus [17]) | Activity (Mus musculus [18]) | EC50 [19]
Cc1ccc(CC(=O)O)cc1OCCC1CCN(c2nc3ccc(Cl)cc3s2)CC1 | 16.2% | 8% | 39 | 20% | 1130 nM | 15.5% | 16 | 10 |  |  |  |  |  |  |  |  |  |  |  | 
CC[C@H]1CN(c2nc3ccc(C(F)(F)F)cc3s2)CCN1CCOc1cc(CC(=O)O)ccc1Cl |  |  |  | 31.7% | 2500 nM | 8% |  |  | 6.1 nM | 240 nM | 399 ng·h/mL | 21.5 mL/min/kg | 2.7 h | 151 ng·h/mL | 10 ng/mL | 18.9% | 156% | 94% | 82% | 
Cc1cc(CC(=O)O)cc(CN2CCN(c3nc4ccc(C(F)(F)F)cc4s3)[C@@H](C(C)C)C2)c1 | 18.6% |  |  | 25% | 2000 nM | 10.3% |  |  | 12 nM |  | 26700 ng·h/mL | 0.31 mL/min/kg | 9.5 h | 45900 ng·h/mL | 2050 ng/mL | 85.8% | 188% | 72% | 56% | 4.1 nM
C[C@H]1CN(c2nc3ccc(C(F)(F)F)cc3s2)CCN1CCOc1cc(CC(=O)O)ccc1Cl |  |  |  | 34% | 2700 nM | 7.2% |  |  | 6.9 nM | 240 nM | 190 ng·h/mL | 45.6 mL/min/kg | 1.4 h | 101 ng·h/mL | 11 ng/mL | 26.4% | 113% | 76% | 80% | 
Cc1cc(CC(=O)O)cc(CN2CCN(c3nc4ccc(C(F)(F)F)cc4s3)[C@H](CC(C)C)C2)c1 | 17.5% | 1.6% |  | 24.8% |  | 1.4% |  |  | 6.9 nM |  | 5680 ng·h/mL | 1.47 mL/min/kg | 6.7 h | 7140 ng·h/mL | 895 ng/mL | 62.9% | 145% | 83% | 75% | 4.3 nM

Source: ChEMBL document CHEMBL5260859, “Discovery and structure-activity relationship study of 2-piperazinyl-benzothiazole derivatives as potent and selective PPARδ agonists” (Bioorg Med Chem, 2023)
